Data: patent US11617751B2, “Pharmaceutical composition containing a tetrahydrofolic acid” (Bayer Pharma AG, priority 2006, dated 2023)

Settings: in presence of polyvinylpyrrolidone (PVP); data not shown

effect of PVP on break-down of 5-methyl-(6S)-tetrahydrofolic acid: accelerated the break-down
SMILES: CN1c2c(nc(N)[nH]c2=O)NC[C@@H]1CNc1ccc(C(=O)N[C@@H](CCC(=O)O)C(=O)O)cc1 [5-methyl-(6S)-tetrahydrofolic acid]
